Results: patent publication US12227500B2, “Substituted pyrrolo[2,3-b]pyridines for suppressing toxic endoplasmic reticulum stress” (THE TRUSTEES OF COLUMBIA UNIVERSITY IN THE CITY OF NEW YORK, priority 2018, dated 2025)
Where two headings read alike, the source gives them in different places.

Experiments:
Assay in all cases: Radiolabeled ATP kinase assay, panel of 371 kinases (Table S6)
Format in all cases: biochemical
[1] = target: T1, panel of 371 human kinases (Homo sapiens, UniProt P30291); details: WEE1; 0.1 μM; 10 μM ATP; read-out: % Enzyme Activity (relative to DMSO controls)
T1 construct: purchased Reaction Biology Corp
Source text: (§1) ; FIG. 38C). […]. Further targeted analyses, such as genetic knock-down or knock-out, may be warranted to parse the role of these additional kinases in our model of neurodegeneration.

[2] = target: T2, panel of 371 human kinases (Homo sapiens, UniProt Q92918); details: HPK1/MAP4K1; 0.1 μM; 10 μM ATP; read-out: % Enzyme Activity (relative to DMSO controls)
T2 construct: purchased Reaction Biology Corp
T2 sequence (Q92918 whole entry): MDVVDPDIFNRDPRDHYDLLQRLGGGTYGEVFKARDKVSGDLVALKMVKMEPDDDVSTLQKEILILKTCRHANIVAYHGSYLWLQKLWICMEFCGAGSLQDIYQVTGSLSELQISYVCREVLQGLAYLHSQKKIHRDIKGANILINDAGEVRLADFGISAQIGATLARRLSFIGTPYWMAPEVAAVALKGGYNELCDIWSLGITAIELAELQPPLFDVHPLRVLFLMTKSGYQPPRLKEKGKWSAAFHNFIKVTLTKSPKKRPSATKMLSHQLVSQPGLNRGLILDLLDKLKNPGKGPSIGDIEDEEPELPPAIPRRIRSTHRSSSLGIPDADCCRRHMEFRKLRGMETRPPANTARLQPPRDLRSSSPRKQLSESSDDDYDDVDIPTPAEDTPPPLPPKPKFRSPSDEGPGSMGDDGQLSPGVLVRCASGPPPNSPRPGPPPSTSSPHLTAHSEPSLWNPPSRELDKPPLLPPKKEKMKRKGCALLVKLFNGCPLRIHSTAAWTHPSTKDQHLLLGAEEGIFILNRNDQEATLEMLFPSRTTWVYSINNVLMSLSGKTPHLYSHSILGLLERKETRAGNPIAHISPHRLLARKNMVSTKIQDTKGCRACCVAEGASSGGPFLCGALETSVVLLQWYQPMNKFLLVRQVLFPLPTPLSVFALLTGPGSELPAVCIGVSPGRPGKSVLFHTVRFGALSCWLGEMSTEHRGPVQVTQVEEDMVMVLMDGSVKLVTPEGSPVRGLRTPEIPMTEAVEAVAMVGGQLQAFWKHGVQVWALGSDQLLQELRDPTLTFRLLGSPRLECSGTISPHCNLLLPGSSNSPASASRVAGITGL
Source text: as §1

[3] = target: T3, panel of 371 human kinases (Homo sapiens, UniProt P16591); details: FER; 0.1 μM; 10 μM ATP; read-out: % Enzyme Activity (relative to DMSO controls)
T3 construct: purchased Reaction Biology Corp
Source text: as §1

[4] = target: T4, panel of 371 human kinases (Homo sapiens, UniProt Q07912); details: ACK1; 0.1 μM; 10 μM ATP; read-out: % Enzyme Activity (relative to DMSO controls)
T4 construct: purchased Reaction Biology Corp
Source text: as §1

[5] = target: T5, panel of 371 human kinases (Homo sapiens, UniProt Q00535); details: 0.1 μM, 10 μM ATP, read-out: % Enzyme Activity (relative to DMSO controls)
T5 construct: purchased Reaction Biology Corp
T5 sequence (Q00535 whole entry): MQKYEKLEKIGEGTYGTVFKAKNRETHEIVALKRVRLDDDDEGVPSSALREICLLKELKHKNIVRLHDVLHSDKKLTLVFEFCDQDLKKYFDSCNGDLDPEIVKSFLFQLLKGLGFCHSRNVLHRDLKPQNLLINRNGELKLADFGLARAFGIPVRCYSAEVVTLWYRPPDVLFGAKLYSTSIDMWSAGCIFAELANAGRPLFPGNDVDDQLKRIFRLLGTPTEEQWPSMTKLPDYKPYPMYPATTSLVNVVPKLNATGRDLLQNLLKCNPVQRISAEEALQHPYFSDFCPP
Source text: as §1

[6] = target: T6, panel of 371 human kinases (Homo sapiens, UniProt P54764); details: EPHA4; 0.1 μM; 10 μM ATP; read-out: % Enzyme Activity (relative to DMSO controls)
T6 construct: purchased Reaction Biology Corp
Source text: as §1

[7] = target: T7, panel of 371 human kinases (Homo sapiens, UniProt O43318); details: TAK1; 0.1 μM; 10 μM ATP; read-out: % Enzyme Activity (relative to DMSO controls)
T7 construct: purchased Reaction Biology Corp
Source text: as §1

[8] = target: T8, panel of 371 human kinases (Homo sapiens, UniProt O15264); details: P38d/MAPK13; 0.1 μM; 10 μM ATP; read-out: % Enzyme Activity (relative to DMSO controls)
T8 construct: purchased Reaction Biology Corp
T8 sequence (O15264 whole entry): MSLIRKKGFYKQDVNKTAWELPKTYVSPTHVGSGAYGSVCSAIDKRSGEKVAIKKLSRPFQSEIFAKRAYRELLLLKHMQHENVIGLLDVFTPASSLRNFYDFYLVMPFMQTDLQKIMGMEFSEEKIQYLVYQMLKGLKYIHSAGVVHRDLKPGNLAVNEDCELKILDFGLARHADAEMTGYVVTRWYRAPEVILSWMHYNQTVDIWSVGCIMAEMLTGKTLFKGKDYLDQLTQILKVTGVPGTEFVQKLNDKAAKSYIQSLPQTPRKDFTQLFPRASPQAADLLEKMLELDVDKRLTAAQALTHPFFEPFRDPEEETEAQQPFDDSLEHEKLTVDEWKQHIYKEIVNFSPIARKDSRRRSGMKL
Source text: as §1

[9] = target: T9, panel of 371 human kinases (Homo sapiens, UniProt O95819); details: for remaining activity at 0.1 µM: HGK/MAP4K4, 10 μM ATP, read-out: % Enzyme Activity (relative to DMSO controls)
T9 construct: purchased Reaction Biology Corp
T9 sequence (O95819 whole entry): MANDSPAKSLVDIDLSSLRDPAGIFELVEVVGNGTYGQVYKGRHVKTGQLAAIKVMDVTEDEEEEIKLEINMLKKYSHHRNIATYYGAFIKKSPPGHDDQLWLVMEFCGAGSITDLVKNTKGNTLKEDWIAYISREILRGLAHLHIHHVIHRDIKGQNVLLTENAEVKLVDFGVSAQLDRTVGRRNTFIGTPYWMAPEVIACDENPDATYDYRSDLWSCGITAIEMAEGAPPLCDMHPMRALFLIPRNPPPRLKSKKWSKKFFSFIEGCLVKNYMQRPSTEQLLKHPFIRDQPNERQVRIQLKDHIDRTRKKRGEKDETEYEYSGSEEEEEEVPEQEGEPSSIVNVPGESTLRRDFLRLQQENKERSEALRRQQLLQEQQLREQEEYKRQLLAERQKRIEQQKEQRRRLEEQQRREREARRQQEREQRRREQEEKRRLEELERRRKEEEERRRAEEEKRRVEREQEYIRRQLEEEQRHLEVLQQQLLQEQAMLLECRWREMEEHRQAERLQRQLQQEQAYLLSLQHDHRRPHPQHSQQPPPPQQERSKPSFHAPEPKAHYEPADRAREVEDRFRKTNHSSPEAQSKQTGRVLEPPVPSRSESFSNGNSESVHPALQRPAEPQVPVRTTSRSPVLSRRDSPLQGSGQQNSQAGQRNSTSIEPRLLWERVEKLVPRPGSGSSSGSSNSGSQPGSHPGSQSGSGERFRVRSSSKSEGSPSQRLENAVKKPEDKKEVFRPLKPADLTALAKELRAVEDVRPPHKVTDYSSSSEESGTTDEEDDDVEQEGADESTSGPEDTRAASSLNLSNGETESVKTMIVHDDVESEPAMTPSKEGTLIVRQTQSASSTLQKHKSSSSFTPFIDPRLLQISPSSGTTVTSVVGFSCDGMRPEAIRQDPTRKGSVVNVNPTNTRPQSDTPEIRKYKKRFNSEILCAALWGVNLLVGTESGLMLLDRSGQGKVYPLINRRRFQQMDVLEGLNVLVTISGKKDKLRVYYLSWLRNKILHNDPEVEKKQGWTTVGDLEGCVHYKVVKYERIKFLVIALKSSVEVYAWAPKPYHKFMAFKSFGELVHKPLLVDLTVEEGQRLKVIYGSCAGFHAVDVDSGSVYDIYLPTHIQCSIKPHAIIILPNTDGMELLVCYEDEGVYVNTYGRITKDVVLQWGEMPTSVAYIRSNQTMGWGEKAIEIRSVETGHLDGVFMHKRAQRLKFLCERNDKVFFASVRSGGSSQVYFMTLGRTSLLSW
Source text: as §1

[10] = target: T10, panel of 371 human kinases (Homo sapiens, UniProt Q9NY57); details: STK32B/YANK2; 0.1 μM; 10 μM ATP; read-out: % Enzyme Activity (relative to DMSO controls)
T10 construct: purchased Reaction Biology Corp
T10 sequence (Q9NY57 whole entry): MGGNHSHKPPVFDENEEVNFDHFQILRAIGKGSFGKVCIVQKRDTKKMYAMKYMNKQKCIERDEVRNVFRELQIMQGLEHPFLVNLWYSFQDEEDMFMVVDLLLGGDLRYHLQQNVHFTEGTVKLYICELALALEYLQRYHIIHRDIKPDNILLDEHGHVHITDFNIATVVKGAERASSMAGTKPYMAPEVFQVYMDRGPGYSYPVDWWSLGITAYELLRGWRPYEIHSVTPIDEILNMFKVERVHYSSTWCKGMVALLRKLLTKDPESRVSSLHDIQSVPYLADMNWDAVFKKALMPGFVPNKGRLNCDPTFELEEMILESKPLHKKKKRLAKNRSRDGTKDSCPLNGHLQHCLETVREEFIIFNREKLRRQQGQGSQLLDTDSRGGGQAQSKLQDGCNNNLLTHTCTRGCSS
Source text: as §1

[11] = target: T11, panel of 371 human kinases (Homo sapiens, UniProt O00238); details: ALK6/BMPR1B; 0.1 μM; 10 μM ATP; read-out: % Enzyme Activity (relative to DMSO controls)
T11 construct: purchased Reaction Biology Corp
Source text: as §1

[12] = target: T12, panel of 371 human kinases (Homo sapiens, UniProt Q13554); details: CAMK2b; 0.1 μM; 10 μM ATP; read-out: % Enzyme Activity (relative to DMSO controls)
T12 construct: purchased Reaction Biology Corp
Source text: as §1

[13] = target: T13, panel of 371 human kinases (Homo sapiens, UniProt Q16644); details: MAPKAPK3; 0.1 μM; 10 μM ATP; read-out: % Enzyme Activity (relative to DMSO controls)
T13 construct: purchased Reaction Biology Corp
T13 sequence (Q16644 whole entry): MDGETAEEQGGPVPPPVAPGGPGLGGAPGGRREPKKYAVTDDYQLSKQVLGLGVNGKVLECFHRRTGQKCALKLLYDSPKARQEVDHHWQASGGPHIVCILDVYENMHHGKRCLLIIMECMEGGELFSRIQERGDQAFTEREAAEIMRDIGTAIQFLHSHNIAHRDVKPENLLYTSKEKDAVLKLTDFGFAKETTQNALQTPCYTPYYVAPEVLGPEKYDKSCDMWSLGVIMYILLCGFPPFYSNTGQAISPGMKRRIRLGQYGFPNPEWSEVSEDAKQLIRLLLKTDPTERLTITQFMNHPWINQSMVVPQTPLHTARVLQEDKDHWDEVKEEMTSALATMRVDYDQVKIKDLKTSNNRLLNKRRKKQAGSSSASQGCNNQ
Source text: as §1

[14] = target: T14, panel of 371 human kinases (Homo sapiens, UniProt P80192); details: MLK1/MAP3K9; 0.1 μM; 10 μM ATP; read-out: % Enzyme Activity (relative to DMSO controls)
T14 construct: purchased Reaction Biology Corp
Source text: as §1

[15] = target: T15, panel of 371 human kinases (Homo sapiens, UniProt P31749); details: AKT1; 0.1 μM; 10 μM ATP; read-out: % Enzyme Activity (relative to DMSO controls)
T15 construct: purchased Reaction Biology Corp
Source text: as §1

[16] = target: T16, panel of 371 human kinases (Homo sapiens, UniProt P42685); details: FRK/PTK5; 0.1 μM; 10 μM ATP; read-out: % Enzyme Activity (relative to DMSO controls)
T16 construct: purchased Reaction Biology Corp
Source text: as §1

[17] = target: T17, panel of 371 human kinases (Homo sapiens, UniProt O00444); details: PLK4/SAK; 0.1 μM; 10 μM ATP; read-out: % Enzyme Activity (relative to DMSO controls)
T17 construct: purchased Reaction Biology Corp
T17 sequence (O00444 whole entry): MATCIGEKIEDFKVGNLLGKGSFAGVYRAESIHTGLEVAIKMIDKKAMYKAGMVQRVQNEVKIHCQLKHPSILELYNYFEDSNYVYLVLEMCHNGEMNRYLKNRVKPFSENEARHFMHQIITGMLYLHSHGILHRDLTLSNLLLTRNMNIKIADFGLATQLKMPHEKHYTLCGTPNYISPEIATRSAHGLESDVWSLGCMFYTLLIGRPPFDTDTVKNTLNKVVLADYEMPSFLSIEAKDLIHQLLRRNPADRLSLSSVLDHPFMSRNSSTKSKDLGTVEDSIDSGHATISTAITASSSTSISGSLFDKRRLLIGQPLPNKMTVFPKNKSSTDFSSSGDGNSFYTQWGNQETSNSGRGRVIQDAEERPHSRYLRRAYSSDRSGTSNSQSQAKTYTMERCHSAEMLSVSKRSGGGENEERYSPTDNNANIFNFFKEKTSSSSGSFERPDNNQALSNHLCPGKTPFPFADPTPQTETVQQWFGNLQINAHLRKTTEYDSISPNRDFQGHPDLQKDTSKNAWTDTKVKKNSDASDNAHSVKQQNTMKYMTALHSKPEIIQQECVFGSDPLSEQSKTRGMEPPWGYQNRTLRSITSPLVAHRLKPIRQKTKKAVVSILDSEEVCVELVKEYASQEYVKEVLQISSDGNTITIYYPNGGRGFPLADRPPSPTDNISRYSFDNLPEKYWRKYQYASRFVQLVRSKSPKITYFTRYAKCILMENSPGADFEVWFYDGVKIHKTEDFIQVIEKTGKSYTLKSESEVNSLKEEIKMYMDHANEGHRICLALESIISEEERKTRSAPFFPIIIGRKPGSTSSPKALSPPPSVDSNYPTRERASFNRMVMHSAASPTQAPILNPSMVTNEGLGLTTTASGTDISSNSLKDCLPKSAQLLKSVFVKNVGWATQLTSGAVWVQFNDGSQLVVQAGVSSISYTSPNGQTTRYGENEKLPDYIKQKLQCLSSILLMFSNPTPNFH
Source text: as §1

[18] = target: T18, panel of 371 human kinases (Homo sapiens, UniProt Q9UBE8); details: NLK; 0.1 μM; 10 μM ATP; read-out: % Enzyme Activity (relative to DMSO controls)
T18 construct: purchased Reaction Biology Corp
Source text: as §1

[19] = target: T19, panel of 371 human kinases (Homo sapiens, UniProt P06241); details: FYN; 0.1 μM; 10 μM ATP; read-out: % Enzyme Activity (relative to DMSO controls)
T19 construct: purchased Reaction Biology Corp
Source text: as §1

[20] = target: T20, panel of 371 human kinases (Homo sapiens, UniProt P35968); details: KDR/VEGFR2; 0.1 μM; 10 μM ATP; read-out: % Enzyme Activity (relative to DMSO controls)
T20 construct: purchased Reaction Biology Corp
Source text: as §1

[21] = target: T21, panel of 371 human kinases (Homo sapiens, UniProt Q04771); details: ALK2/ACVR1; 0.1 μM; 10 μM ATP; read-out: % Enzyme Activity (relative to DMSO controls)
T21 construct: purchased Reaction Biology Corp
Source text: as §1

[22] = target: T22, panel of 371 human kinases (Homo sapiens, UniProt Q8WTQ7); details: GRK7; 0.1 μM; 10 μM ATP; read-out: % Enzyme Activity (relative to DMSO controls)
T22 construct: purchased Reaction Biology Corp
Source text: as §1

[23] = target: T23, panel of 371 human kinases (Homo sapiens, UniProt P42680); details: TEC; 0.1 μM; 10 μM ATP; read-out: % Enzyme Activity (relative to DMSO controls)
T23 construct: purchased Reaction Biology Corp
Source text: as §1

[24] = target: T24, panel of 371 human kinases (Homo sapiens, UniProt O14757); details: CHK1; 0.1 μM; 10 μM ATP; read-out: % Enzyme Activity (relative to DMSO controls)
T24 construct: purchased Reaction Biology Corp
T24 sequence (O14757 whole entry): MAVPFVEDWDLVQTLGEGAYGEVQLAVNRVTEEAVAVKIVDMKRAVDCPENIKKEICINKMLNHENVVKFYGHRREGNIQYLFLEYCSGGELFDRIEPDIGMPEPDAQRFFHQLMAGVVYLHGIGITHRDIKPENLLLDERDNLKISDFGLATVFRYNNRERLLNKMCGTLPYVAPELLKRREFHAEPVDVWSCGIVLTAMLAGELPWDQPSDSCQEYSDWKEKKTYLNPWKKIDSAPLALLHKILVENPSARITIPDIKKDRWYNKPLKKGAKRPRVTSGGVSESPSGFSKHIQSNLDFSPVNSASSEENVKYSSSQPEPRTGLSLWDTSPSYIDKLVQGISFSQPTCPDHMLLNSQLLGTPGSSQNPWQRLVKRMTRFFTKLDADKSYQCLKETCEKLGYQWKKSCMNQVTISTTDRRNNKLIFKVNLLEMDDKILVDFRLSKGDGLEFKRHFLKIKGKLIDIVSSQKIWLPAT
Source text: as §1

SMILES | remaining activity at 0.1 µM [1] [%] | remaining activity at 0.1 µM [2] [%] | remaining activity at 0.1 µM [3] [%] | remaining activity at 0.1 µM [4] [%] | remaining activity at 0.1 µM ([5]; CDK5/p25) [%] | remaining activity at 0.1 µM ([5]; CDK5/p35) [%] | remaining activity at 0.1 µM [6] [%] | remaining activity at 0.1 µM [7] [%] | remaining activity at 0.1 µM [8] [%] | remaining activity at 0.1 µM [9] [%] | remaining activity at 0.1 µM [10] [%] | remaining activity at 0.1 µM [11] [%] | remaining activity at 0.1 µM [12] [%] | remaining activity at 0.1 µM [13] [%] | remaining activity at 0.1 µM [14] [%] | remaining activity at 0.1 µM [15] [%] | remaining activity at 0.1 µM [16] [%] | remaining activity at 0.1 µM [17] [%] | remaining activity at 0.1 µM [18] [%] | remaining activity at 0.1 µM [19] [%] | also measured
OCCN1CCN(Cc2ccc(-c3cnc4[nH]cc(-c5cccc(Cl)c5)c4c3)cc2)CC1 [Compound 12k, 2-(4-(4-(3-(3-Chlorophenyl)-1H-pyrrolo[2,3-b]pyridin-5-yl)benzyl)piperazin-1-yl)ethan-1-ol] | 86.6 | 47.9 | 103 | 93.6 | 75.9 | 79.2 | 88.7 | 77.4 | 103 | 1.35 | 88.5 | 125 | 92.2 | 96.7 | 73.7 | 101 | 98.3 | 93.4 | 94.3 | 96.3 | fold change in HGK activity following 12k exposure relative to 1 ([9]; 0.025 μM): 14.92 fold; remaining activity at 0.1 µM [20]: 84.7%; remaining activity at 0.1 µM [21]: 126%; remaining activity at 0.1 µM [22]: 97.1%; remaining activity at 0.1 µM [23]: 99.9%; remaining activity at 0.1 µM [24]: 75%
CN1CCN(Cc2ccc(-c3cnc4[nH]cc(-c5ccc6[nH]ccc6c5)c4c3)cc2)CC1 [Compound 1, 3-(1H-Indol-5-yl)-5-(4-((4-methylpiperazin-1-yl)methyl)phenyl)-1H-pyrrolo[2,3-b]pyridine, reference compound] | 114 | 49.6 | 94.8 | 87.3 | 79.7 | 81.3 | 94.2 | 84.6 | 132 | 20.2 | 97 | 116 | 95.5 | 101 | 48.2 | 97 | 91.1 | 97 | 101 | 92.1 | remaining activity at 0.1 µM [20]: 76.2%; remaining activity at 0.1 µM [21]: 121%; remaining activity at 0.1 µM [22]: 101%; remaining activity at 0.1 µM [23]: 106%; remaining activity at 0.1 µM [24]: 90%
